Results: PubChem BioAssay (NCI)
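All cell lines were grown in 96-well plates and treated with compound for 48 hours. TGI marks complete inhibition of growth.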

Columns and labels:
Assay in all cases: NCI anticancer screen, dose series, 48 h
[1] = test system: UO-31 renal
[2] = test system: SK-MEL-28 melanoma
[3] = test system: HCC-2998 colon
[4] = test system: SF-295 CNS
[5] = test system: HOP-62 NSCLC
[6] = test system: K-562 leukemia
[7] = test system: SF-539 CNS
[8] = test system: U251 CNS
[9] = test system: NCI/ADR-RES ovarian
[10] = test system: SF-268 CNS
[11] = test system: NCI-H460 lung
[12] = test system: HS 578T breast
[13] = test system: A498 renal
[14] = test system: OVCAR-5 ovarian
[15] = test system: SK-MEL-2 melanoma
[16] = test system: NCI-H226 lung

SMILES	TGI [1] [µM]	TGI [2] [µM]	TGI [3] [µM]	TGI [4] [µM]	TGI [5] [µM]	TGI [6] [µM]	TGI [7] [µM]	TGI [8] [µM]	TGI [9] [µM]	TGI [10] [µM]	TGI [11] [µM]	TGI [12] [µM]	TGI [13] [µM]	TGI [14] [µM]	TGI [15] [µM]	TGI [16] [µM]
Cc1nc2ccccc2c(=O)n1NC(=O)c1ccccn1	> 100	> 100	> 100	> 100	> 100	> 100	> 100	> 100	> 100	> 100	> 100	> 100	> 100	–	–	–
CC1=NN(c2cccc(S(=O)(=O)O)c2)C2(C1)C(Cl)C(=O)N2c1nc2ccccc2s1 (configuration not stated)	8.27	36.1	28.5	28	17.9	> 41.4	–	16.3	26.8	22.9	26.3	> 80.7	34	28.1	15.4	22.2
OC1=C2c3ccccc3NC2Oc2cc(F)ccc21 (configuration not stated)	28.2	> 100	32.4	29.5	33.2	48.5	–	29.6	47.3	40.3	38.5	> 100	32.4	38.2	41.8	89.5
CCC(C)C(=O)OC1C(=O)OC2CC3C(C)=CC(=O)C(O)C3(C)C3C4(O)OCC23C1C(C)C4O (configuration not stated)	0.278	0.106	0.227	0.126	0.149	–	0.0315	< 0.0317	6.47	0.124	0.659	0.275	3.3	–	0.184	< 0.031
COc1cccc(Nc2nc(C)c([N+](=O)[O-])c(Nc3cccc(OC)c3)n2)c1	> 100	> 100	–	47.9	46.2	> 100	> 100	> 100	14.4	> 100	19.8	> 100	50.4	> 100	96.5	> 100
CC1=NN(c2ccccc2)C2(C1)C(Cl)C(=O)N2c1nc2ccccc2s1 (configuration not stated)	> 100	> 100	> 100	> 100	82.6	> 100	–	> 100	68.5	> 100	> 100	> 100	> 100	> 100	78.1	85.7
O=C1c2ccccc2C(=O)C2NC(CCCCCSSCCCCCC3=NC4C(=O)c5ccccc5C(=O)C4N3)=NC12 (configuration not stated)	> 100	> 100	–	> 100	> 100	> 100	> 100	> 100	> 100	> 100	> 100	> 100	> 100	> 100	> 100	> 100
CN1CCC23c4c5ccc(Oc6nnnn6-c6ccccc6)c4OC2c2[nH]c4ccccc4c2CC3(O)C1C5 (configuration not stated)	3.18	4.73	3.3	15.3	12.8	3.86	–	3.65	19.7	21.2	3.66	33.9	6.3	32.6	3.28	27.6
Cc1ccc2c(c1)C(=O)C1(C2)Cc2c(C)cccc2C1=O (configuration not stated)	> 100	> 100	> 100	> 100	> 100	> 100	> 100	> 100	> 100	> 100	> 100	> 100	> 100	> 100	–	> 100
CC(=O)NC1C(OCc2ccccc2)OC(CO)C(O)C1OC(C)C(=O)NC(C(=O)NC(CCC(=O)NCCCC(=O)Nc1ccc2c(c1)CN1C(=O)c3ccccc3C1=N2)C(N)=O)C(C)C (configuration not stated)	> 100	> 100	> 100	> 100	> 100	> 100	> 100	> 100	> 100	> 100	> 100	> 100	> 100	> 100	> 100	–
O=C1C2=Cc3ccccc3CCN2c2ccccc21	> 100	> 82.3	–	98.3	> 100	20.5	27.2	> 31.6	> 77.9	> 74.2	60.2	> 100	25.9	> 100	67.9	22
